These results are taken from EPA's ToxValDB 9.5 (doi:10.2903/j.efsa.2013.3213).

The data set has as its system Rattus norvegicus. The note with it: chronic.

In turn, `CCOP(=O)=O.CCOP(=O)=O.CCOP(=O)=O.[Al+3]` [Fosetyl aluminum] showed an NOAEL of 232 mg/kg-day.
